Read-outs that look alike come from different tables or passages of the source.
Tests used:
[1] = molecular target: T1, baculovirus-expressed ALK (Homo sapiens, UniProt Q9UM73); assay: ALK Kinase Assay (ELISA-type, time-resolved fluorescence); format: biochemical
T1 construct: host or cells: baculovirus expression system
Outline: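 Wells were coated with phospholipase C-γ at 10 μg/mL in Tris-buffered saline. Adding 30 ng/ml enzyme started the reaction, which ran at 37° C for 15 minutes before Eu-N1 PT66 antibody detection. Percent inhibition versus log10 concentration gave IC50 by variable-slope fit.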

[2] = molecular target: T2, c-Met (cytoplasmic domain) (Homo sapiens, UniProt P08581); assay: c-Met Kinase Assay (same methods as for ALK, with modifications); format: biochemical
T2 construct: 10 ng/mL c-Met (cytoplasmic domain, Invitrogen Corporation #PV3143); purchased Invitrogen Corporation PV3143
Outline: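 Steps: coat wells with PLC-γ (10 μg/mL, Tris-buffered saline); add 10 ng/mL c-Met cytoplasmic domain to initiate; incubate 15 min, 37° C; detect phosphoproduct via Eu-N1 PT66 antibody.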

[3] = ALK kinase inhibition, 1 μM ATP, read-out: ALK Activity
[4] = c-Met kinase inhibition, 1 μM ATP, read-out: cMet Activity
[5] = ALK kinase inhibition, 1 μM ATP (Km level), read-out: ALK Activity
[6] = c-Met kinase inhibition, 1 μM ATP (Km level), read-out: cMet Activity
[7] = 1 μM ATP (Km level), 30 ng/ml ALK, 37° C., 15 minutes, read-out: ALK Activity (ALK kinase inhibition, IC50 class)
[8] = 1 μM ATP (Km level), 10 ng/mL c-Met, read-out: cMet Activity (c-Met kinase inhibition, IC50 class)
[9] = 1 μM ATP (Km level), read-out: ALK Activity (ALK Kinase Inhibition, IC50)
[10] = 1 μM ATP (Km level), read-out: cMet Activity (c-Met Kinase Inhibition, IC50)

T2 sequence (P08581 956-1390 limits assumed): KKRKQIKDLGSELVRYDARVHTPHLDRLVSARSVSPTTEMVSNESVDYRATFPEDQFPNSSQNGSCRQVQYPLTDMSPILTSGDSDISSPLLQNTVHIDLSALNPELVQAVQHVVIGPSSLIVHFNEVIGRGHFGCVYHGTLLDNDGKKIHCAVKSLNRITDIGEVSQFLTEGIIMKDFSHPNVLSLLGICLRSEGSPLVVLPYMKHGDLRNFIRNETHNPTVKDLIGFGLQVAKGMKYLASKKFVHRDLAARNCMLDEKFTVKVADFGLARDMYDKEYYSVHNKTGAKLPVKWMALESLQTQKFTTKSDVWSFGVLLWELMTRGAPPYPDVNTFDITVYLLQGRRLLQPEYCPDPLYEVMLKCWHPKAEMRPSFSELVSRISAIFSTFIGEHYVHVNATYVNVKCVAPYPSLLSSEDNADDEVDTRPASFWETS
T1 sequence (Q9UM73 19-1620): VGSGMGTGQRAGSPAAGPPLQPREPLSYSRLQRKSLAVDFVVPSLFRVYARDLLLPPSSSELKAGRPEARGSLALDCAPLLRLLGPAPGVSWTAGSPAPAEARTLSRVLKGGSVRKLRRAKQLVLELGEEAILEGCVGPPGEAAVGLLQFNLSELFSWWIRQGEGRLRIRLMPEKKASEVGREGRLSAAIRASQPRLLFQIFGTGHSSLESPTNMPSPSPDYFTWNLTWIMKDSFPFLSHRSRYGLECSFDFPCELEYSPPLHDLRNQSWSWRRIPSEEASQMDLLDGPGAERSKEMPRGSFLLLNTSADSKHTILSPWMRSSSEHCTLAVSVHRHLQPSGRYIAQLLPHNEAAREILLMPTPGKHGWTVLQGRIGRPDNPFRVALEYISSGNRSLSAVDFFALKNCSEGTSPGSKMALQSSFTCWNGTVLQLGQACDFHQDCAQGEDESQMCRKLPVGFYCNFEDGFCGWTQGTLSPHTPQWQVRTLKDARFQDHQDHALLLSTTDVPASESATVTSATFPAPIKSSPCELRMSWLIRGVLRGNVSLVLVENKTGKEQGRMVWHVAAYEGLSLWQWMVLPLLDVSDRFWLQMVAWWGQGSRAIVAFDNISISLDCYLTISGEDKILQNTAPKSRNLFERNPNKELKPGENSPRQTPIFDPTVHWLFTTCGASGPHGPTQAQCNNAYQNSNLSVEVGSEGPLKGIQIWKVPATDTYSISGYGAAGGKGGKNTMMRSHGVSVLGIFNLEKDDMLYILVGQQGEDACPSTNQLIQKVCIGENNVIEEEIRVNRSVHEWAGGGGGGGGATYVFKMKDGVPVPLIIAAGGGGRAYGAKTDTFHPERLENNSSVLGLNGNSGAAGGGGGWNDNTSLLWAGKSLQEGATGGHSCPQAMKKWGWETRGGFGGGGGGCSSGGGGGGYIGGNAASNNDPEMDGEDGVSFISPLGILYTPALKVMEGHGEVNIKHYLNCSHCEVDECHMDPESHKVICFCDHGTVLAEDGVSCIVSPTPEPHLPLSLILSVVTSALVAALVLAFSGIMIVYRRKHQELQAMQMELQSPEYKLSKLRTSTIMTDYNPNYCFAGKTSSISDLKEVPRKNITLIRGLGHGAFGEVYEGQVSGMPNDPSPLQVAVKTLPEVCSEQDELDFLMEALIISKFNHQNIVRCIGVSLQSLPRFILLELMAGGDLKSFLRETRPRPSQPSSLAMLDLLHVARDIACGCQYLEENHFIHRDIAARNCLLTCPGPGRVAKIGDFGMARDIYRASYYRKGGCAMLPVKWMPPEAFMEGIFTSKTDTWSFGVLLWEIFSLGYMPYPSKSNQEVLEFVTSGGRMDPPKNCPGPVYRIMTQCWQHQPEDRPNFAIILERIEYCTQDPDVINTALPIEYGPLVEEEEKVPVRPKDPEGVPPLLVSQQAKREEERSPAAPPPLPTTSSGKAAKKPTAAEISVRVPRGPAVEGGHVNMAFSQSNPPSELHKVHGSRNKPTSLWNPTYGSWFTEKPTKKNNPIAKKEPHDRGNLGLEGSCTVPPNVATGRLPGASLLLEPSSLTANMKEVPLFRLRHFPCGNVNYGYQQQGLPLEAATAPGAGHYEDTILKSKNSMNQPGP

CCN1CCCOc2cc(Nc3ncc(Cl)c(N[C@@H]4CCCC[C@H]4NS(C)(=O)=O)n3)ccc21 [Example 1693, N-{(1R,2R)-2-[5-Chloro-2-(9-ethyl-6,7,8,9-tetrahydro-5-oxa-9-aza-benzocyclohepten-3-ylamino)-pyrimidin-4-ylamino]-cyclohexyl}-methanesulfonamide]
IC50 [1, 3]: < 0.1 µM | IC50 [2, 4]: 0.1 to 1 µM

2-[5-Chloro-2-(1,4-dimethyl-5-oxo-2,3,4,5-tetrahydro-1H-benzo[e][1,4]diazepin-8-ylamino)-pyrimidin-4-ylamino]-N-methylbenzamide [Example 416]
IC50 [1, 5]: < 0.1 µM | IC50 [2, 6]: < 0.1 µM

COc1cc2c(cc1Nc1ncc(Cl)c(Nc3ccccc3S(=O)(=O)N3CCC(O)C3)n1)CCC(N1CCN(C)CC1)CC2 (stereo not drawn) [Example 1098, 1-(2-{5-Chloro-2-[3-methoxy-7-(4-methyl-piperazin-1-yl)-6,7,8,9-tetrahydro-5H-benzocyclohepten-2-ylamino]-pyrimidin-4-ylamino}-benzenesulfonyl)-pyrrolidin-3-ol]
IC50 [1, 7]: < 0.1 µM | IC50 [2, 8]: 1 to 10 µM

CC(=O)OCCN1CCN(C)c2cc(Nc3ncc(Cl)c(Nc4ccccc4NS(C)(=O)=O)n3)ccc2C1 [Example 473, Acetic acid 2-{8-[5-chloro-4-(2-methanesulfonylamino-phenylamino)-pyrimidin-2-ylamino]-1-methyl-1,2,3,5-tetrahydro-benzo[e][1,4]diazepin-4-yl}-ethyl ester]
IC50 [1, 5]: < 0.1 µM | IC50 [2, 6]: 0.1 to 1 µM

COCCCNC(=O)c1ccccc1Nc1nc(Nc2ccc3c(c2)CCN(CCOC)CC3)ncc1Cl [Example 1399, {5-Chloro-2-[3-(2-methoxy-ethyl)-2,3,4,5-tetrahydro-1H-benzo[d]azepin-7-ylamino]-pyrimidin-4-ylamino}-N-(3-methoxy-propyl)-benzamide]
IC50 [1, 7]: < 0.1 µM | IC50 [2, 8]: 1 to 10 µM

CN1CCN(C2CCc3ccc(Nc4ncc(Cl)c(N[C@H]5[C@@H](C(N)=O)[C@@H]6C=C[C@H]5C6)n4)cc3CC2)CC1 (stereo partly drawn) [Example 892, (1S,2S,3R,4R)-3-{5-Chloro-2-[7-(4-methyl-piperazin-1-yl)-6,7,8,9-tetrahydro-5H-benzocyclohepten-2-ylamino]-pyrimidin-4-ylamino}-bicyclo[2.2.1]hept-5-ene-2-carboxylic acid amide]
IC50 [1, 9]: < 0.1 µM | IC50 [2, 10]: 1 to 10 µM

COc1cc(N2CCOCC2)ccc1Nc1nc(Nc2ccc3c(c2)CCC(NCC(F)F)CC3)ncc1Cl (stereo not drawn) [Example 659, 5-Chloro-N*2*-[7-(2,2-difluoro-ethylamino)-6,7,8,9-tetrahydro-5H-benzocyclohepten-2-yl]-N*4*-(2-methoxy-4-morpholin-4-yl-phenyl)-pyrimidine-2,4-diamine]
IC50 [1, 9]: < 0.1 µM | IC50 [2, 10]: > 10 µM

CCCNC(=O)c1ccc(Nc2nc(Nc3ccc4c(c3)CCC(N3CCOCC3)CC4)ncc2Cl)c(OC)c1 (stereo not drawn) [Example 929, 4-[5-Chloro-2-(7-morpholin-4-yl-6,7,8,9-tetrahydro-5H-benzocyclohepten-2-ylamino)-pyrimidin-4-ylamino]-3-methoxy-N-propyl-benzamide]
IC50 [1, 9]: < 0.1 µM | IC50 [2, 10]: > 10 µM

COc1cc2c(cc1Nc1ncc(Cl)c(Nc3ccccc3-c3ncccc3C)n1)CCN(CC(=O)N(C)C)CC2 [Example 1000, 2-(7-{5-Chloro-4-[2-(3-methyl-pyridin-2-yl)-phenylamino]-pyrimidin-2-ylamino}-8-methoxy-1,2,4,5-tetrahydro-benzo[d]azepin-3-yl)-N,N-dimethyl-acetamide]
IC50 [1, 9]: < 0.1 µM | IC50 [2, 10]: > 10 µM

COCCN1CCc2ccc(Nc3ncc(Cl)c(Nc4c(F)cccc4C(=O)NCC#N)n3)cc2CC1 [Example 1079, 2-{5-Chloro-2-[3-(2-methoxy-ethyl)-2,3,4,5-tetrahydro-1H-benzo[d]azepin-7-ylamino]-pyrimidin-4-ylamino}-N-cyanomethyl-3-fluoro-benzamide]
IC50 [1, 7]: < 0.1 µM | IC50 [2, 8]: < 0.1 µM

Cc1nnc(-c2ccccc2Nc2nc(Nc3ccc4c(c3)CCOC(=O)N4C)ncc2Cl)s1 [Example 1494, 2-{5-Chloro-4-[2-(5-methyl-[1,3,4]thiadiazol-2-yl)-phenylamino]-pyrimidin-2-ylamino}-5-methyl-8,9-dihydro-5H-7-oxa-5-aza-benzocyclohepten-6-one]
IC50 [1, 3]: 0.1 to 1 µM | IC50 [2, 4]: < 0.1 µM

CCN(CCO)Cc1cc(Nc2nc(Nc3ccc4c(c3)N(CC)CCN(CC)C4)ncc2Cl)ccc1F [Example 734, 2-({5-[5-Chloro-2-(1,4-diethyl-2,3,4,5-tetrahydro-1H-benzo[e][1,4]diazepin-8-ylamino)-pyrimidin-4-ylamino]-2-fluoro-benzyl}-ethyl-amino)-ethanol]
IC50 [1, 9]: < 0.1 µM | IC50 [2, 10]: > 10 µM

COc1ccccc1Nc1nc(Nc2ccc3c(c2)CCC(N2CCN(C)CC2)CC3)ncc1Cl (stereo not drawn) [Example 891, 5-Chloro-N*4*-(2-methoxy-phenyl)-N*2*-[7-(4-methyl-piperazin-1-yl)-6,7,8,9-tetrahydro-5H-benzocyclohepten-2-yl]-pyrimidine-2,4-diamine]
IC50 [1, 9]: < 0.1 µM | IC50 [2, 10]: 1 to 10 µM

CCN1C(=O)CCC(C)(C)c2ccc(Nc3ncc(Cl)c(Nc4c(F)cccc4OCC#N)n3)cc21 [Example 1520, {2-[5-Chloro-2-(1-ethyl-5,5-dimethyl-2-oxo-2,3,4,5-tetrahydro-1H-1-benzazepin-8-ylamino)-pyrimidin-4-ylamino]-3-fluoro-phenoxy}-acetonitrile]
IC50 [1, 3]: < 0.1 µM | IC50 [2, 4]: < 0.1 µM

N-((1R,2R)-2-{5-Chloro-2-[7-(2,2-difluoro-ethylamino)-6,7,8,9-tetrahydro-5H-benzocyclohepten-2-ylamino]-pyrimidin-4-ylamino}-cyclohexyl)-methanesulfonamide [Example 675]
IC50 [1, 9]: < 0.1 µM | IC50 [2, 10]: > 10 µM

CCN1CCc2ccc(Nc3ncc(Cl)c(N[C@@H]4CCCC[C@H]4NC(=O)C(F)(F)F)n3)cc2CC1 [Example 446, N-{(1R,2R)-2-[5-Chloro-2-(3-ethyl-2,3,4,5-tetrahydro-1H-benzo[d]azepin-7-ylamino)-pyrimidin-4-ylamino]-cyclohexyl}-2,2,2-trifluoro-acetamide]
IC50 [1, 5]: < 0.1 µM | IC50 [2, 6]: 0.1 to 1 µM

CNC(=O)c1ccccc1Nc1nc(Nc2ccc3c(c2)N(C(C)=O)CCCO3)ncc1Cl [Example 1703, 2-[2-(9-Acetyl-6,7,8,9-tetrahydro-5-oxa-9-aza-benzocyclohepten-2-ylamino)-5-chloro-pyrimidin-4-ylamino]-N-methyl-benzamide]
IC50 [1, 3]: < 0.1 µM | IC50 [2, 4]: < 0.1 µM

COc1cc2c(cc1Nc1ncc(Cl)c(NC3C4C=CC(C4)C3C(N)=O)n1)NC(=O)CN(Cc1ccccc1)C2 (stereo not drawn) [Example 1652, 3-[2-(4-Benzyl-7-methoxy-2-oxo-2,3,4,5-tetrahydro-1H-benzo[e][1,4]diaz-epin-8-ylamino)-5-chloro-pyrimidin-4-ylamino]-bicyclo[2.2.1]hept-5-ene-2-carboxylic acid amide]
IC50 [1, 3]: < 0.1 µM | IC50 [2, 4]: > 10 µM

COCCN1CCc2cc(Nc3ncc(Cl)c(Nc4ccccc4-c4nccn4C)n3)c(OC)cc2CC1 [Example 986, 5-Chloro-N*2*-[8-methoxy-3-(2-methoxy-ethyl)-2,3,4,5-tetrahydro-1H-benzo[d]azepin-7-yl]-N*4*-[2-(1-methyl-1H-imidazol-2-yl)-phenyl]-pyrimidine-2,4-diamine]
IC50 [1, 9]: < 0.1 µM | IC50 [2, 10]: > 10 µM

CNC(=O)c1cccc(F)c1Nc1nc(Nc2ccc3c(c2)CCN(C(=O)C2COCCO2)CC3)ncc1Cl (stereo not drawn) [Example 639, 2-{5-Chloro-2-[3-([1,4]dioxane-2-carbonyl)-2,3,4,5-tetrahydro-1H-benzo[d]azepin-7-ylamino]-pyrimidin-4-ylamino}-3-fluoro-N-methyl-benzamide]
IC50 [1, 9]: < 0.1 µM | IC50 [2, 10]: < 0.1 µM

CCN1C(=O)[C@H](NC(=O)C2CC2)CCc2c1ccc(Nc1ncc(Cl)c(N[C@H]3[C@@H](C(N)=O)[C@@H]4C=C[C@H]3C4)n1)c2OC (single isomer, unassigned) [Example 1357]
IC50 [1, 7]: < 0.1 µM | IC50 [2, 8]: > 10 µM

CCN1CCc2ccc(Nc3ncc(Cl)c(Nc4ccc(N5CCOCC5)cc4OC)n3)cc2CC1 [Example 442, 5-Chloro-N*2*-(3-ethyl-2,3,4,5-tetrahydro-1H-benzo[d]azepin-7-yl)-N*4*-(2-methoxy-4-morpholin-4-yl-phenyl)-pyrimidine-2,4-diamine]
IC50 [1, 5]: < 0.1 µM | IC50 [2, 6]: 1 to 10 µM

COc1cc2c(cc1Nc1ncc(Cl)c(Nc3ccc(N(C)C)cc3OC)n1)CCN(CCS(C)(=O)=O)CC2 [Example 1167, 5-Chloro-N*4*-(4-dimethylamino-2-methoxy-phenyl)-N*2*-[3-(2-methanesulfonyl-ethyl)-8-methoxy-2,3,4,5-tetrahydro-1H-benzo[d]azepin-7-yl]-pyrimidine-2,4-diamine]
IC50 [1, 7]: < 0.1 µM | IC50 [2, 8]: > 10 µM

COCCN1CCc2cc(Nc3ncc(Cl)c(Nc4ccc(N5CCN(C)CC5)cc4OC)n3)c(OC)cc2CC1 [Example 790, 5-Chloro-N*2*-[8-methoxy-3-(2-methoxy-ethyl)-2,3,4,5-tetrahydro-1H-benzo[d]azepin-7-yl]-N*4*-[2-methoxy-4-(4-methyl-piperazin-1-yl)-phenyl]-pyrimidine-2,4-diamine]
IC50 [1, 9]: < 0.1 µM | IC50 [2, 10]: > 10 µM
